Source: patent US12552800B2, “Compounds for diagnosis” (AC IMMUNE SA, priority 2020, dated 2026)
pKi: −log10 of the molar value.

Assays:
[1] = target: T1, Abeta pathological aggregates (Homo sapiens, UniProt P05067); experiment: Radiobinding competition assay against [^3H]-Abeta-Ref on AD brain homogenates (example compound 1); assay type: binding
T1 construct: Abeta pathological aggregates present in the human AD brain homogenates; from tissue; host or cells: human AD donor brain, Triton/sucrose-insoluble 100,000 x g pellet
T1 sequence (P05067 672-713 limits assumed): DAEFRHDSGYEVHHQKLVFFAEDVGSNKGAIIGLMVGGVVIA
Protocol: The procedure was adapted from the protocol described in Bagchi et al., 2013. Frozen tissue blocks from AD donors were thawed on ice and homogenized in high salt buffer (50 mM Tris-HCl pH 7.5, 0.75M NaCl, 5 mM EDTA) supplemented with protease inhibitors (Complete; Roche 11697498001) at 4° C. using a glass Dounce homogenizer. The homogenate was centrifuged at 100,000×g (38,000 RPM) in an ultracentrifuge (Beckman, XL100K) for one hour at 4° C. using a pre-cooled 70.1 rotor (Beckman, 342184). Pellets were resuspended in high salt buffer supplemented with 1% Triton X-100 and homogenized at 4° C. using a glass Dounce homogenizer. The homogenates were centrifuged again at 100,000×g (38,000 RPM, 70.1 rotor) for one hour at 4° C. Pellets were resuspended in high salt buffer supplemented with 1% Triton X-100 and 1 M sucrose and homogenized at 4° C. using a glass Dounce homogenizer. The homogenates were centrifuged at 100,000×g (38,000 RPM, 70.1 rotor) for one hour at 4° C. […]
A fixed concentration of AD insoluble fraction was incubated with a tritiated reference Abeta ligand ([^3H]-Abeta-Ref) at 10 nM and increasing concentrations of non-radiolabelled example compound 1 in the range of […] to 2 μM for two hours at RT. […] The filters were analyzed on a Microbeta2 scintillation counter (PerkinElmer). […]

[2] = target: T2, PD brain-derived a-syn aggregates (Homo sapiens, UniProt P37840); experiment: Micro-radiobinding competition assay against [^3H]-a-syn-Ref; assay type: binding; conditions: for Competition at 1 μM (%): over [^3H]-a-syn-Ref at 20 nM, example compound at 1 μM
T2 construct: from tissue; host or cells: human PD donor brain, sarkosyl-insoluble 100,000 x g pellet
Protocol: The procedure was adapted from the protocol described in Spillantini et al., 1998. Frozen tissue blocks from PD donors were thawed on ice and homogenized using a glass dounce homogenizer. The homogenate was then centrifuged at 11,000×g (12,700 RPM) in an ultracentrifuge (Beckman, XL100K) for 20 minutes at 4° C. using a pre-cooled 70.1 rotor (Beckman, 342184). Pellets were resuspended in extraction buffer [10 mM Tris-HCl pH 7.4, 10% sucrose, […], 1% protease inhibitor (Calbiochem 539131), 1 mM EGTA, 1% phosphatase inhibitor (Sigma P5726 and P0044)] and centrifuged at 15,000×g (14,800 RPM, a 70.1 Ti rotor) for 20 minutes at 4° C. Pellets were discarded and sarkosyl (20% stock solution, Sigma L7414) was added to the supernatants to a final concentration of 1% at room temperature for one hour. This solution was then centrifuged at 100,000×g (38,000 RPM, 70.1 Ti rotor) for one hour at 4° C. Pellets containing enriched a-syn aggregates were resuspended in PBS and stored at −80° C. until use.
PD brain-derived a-syn aggregates were spotted onto microarray slides. The slides were incubated with the tritiated reference ligand, [^3H]-a-syn-Ref (as described in WO2017/153601) at 20 nM and the example compounds of this invention (non-radiolabelled) either at 1 μM or at increasing concentrations in the range of 50 pM to 2 μM. After incubation, slides were washed and exposed to a phosphor storage screen (GE healthcare, BAS-IP TR 2025). Following exposure, phosphor storage screens were scanned with a laser imaging system (Typhoon FLA 7000) to readout the signal from the radiobinding experiments described above. Quantification of the signal was performed using the ImageJ software package. […] All measurements were performed with at least two technical replicates.
Example compounds were assessed for their potency to compete with the binding of [3H] radiolabelled reference ligand to PD patient brain-derived a-syn aggregates. Results of the micro-radiobinding competition assay for the example compounds tested are shown in Table 5 as: % competition at 1 μM and Ki value. All measurements were performed on the same PD brain-derived a-syn aggregates.

[3] = target: T2, PD brain-derived a-syn aggregates; experiment: Micro-radiobinding competition assay against Example-1 [^3H-1] (Table 8); assay type: binding; conditions: competition over Example-1 [^3H-1]
[4] = target: T2, PD brain-derived a-syn aggregates; experiment: as above; assay type: binding; conditions: human PD brain-derived a-syn aggregates; for Competition at 100 nM (%): 100 nM non-radiolabelled example compound vs Example-1 [^3H-1] ligand; for Competition at 1 μM (%): 1 μM non-radiolabelled example compound vs Example-1 [^3H-1] ligand
Procedure, shortened: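 Human PD brain-derived α-syn aggregates on microarray slides were co-incubated with 6 nM or 20 nM tritiated radioligand and unlabelled compound at 1 μM and 100 nM, some over 0.05 nM–2 μM. Bound signal read by real-time autoradiography; values are % competition, at least two technical replicates, mean of independent experiments.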

[5] = PK study in a healthy monkey by PET; assay type: in vivo, Non-Human Primate (NHP); conditions: iv, 6.5 mCi
Protocol: Non-Human Primate (NHP) was injected intravenously (iv) with the ^18F-labelled Example-1 [^18F-1] (6.5 mCi) using 1 mL ethanol and 14 mL ascorbate/saline (ascorbate solution was prepared at a concentration of 9.3 mg/mL). Monkey PET scans were performed using a Siemens Focus 220. PET acquisition started immediately before the radioactive dose was injected. Images were generated as dynamic scans for 120 minutes with head focused.

With `O=C1c2cn(-c3ccc(N4CC[C@@H](F)C4)nc3)nc2CN1c1cccnc1` [Example 1] the pKi ([1]; displacement of [^3H]-Abeta-Ref at 10 nM, AD brain-derived homogenates) was 6.48, the “selectivity for a-syn over Abeta pathological aggregates” value ([1]; in words) was “good selectivity for a-syn over Abeta” and the pKi ([2]; displacement of [^3H]-a-syn-Ref, average of two independent experiments) was 7.52. For the same compound, the “binding to PD brain-derived a-syn aggregates” value ([2]; in words) was “good binding” and the “Competition at 1 μM (%)” value [2] was 94%.
With `O=C1c2cn(-c3ccc(N4CC[C@@H](F)C4)nc3)nc2CN1c1ccncc1` [Example 2] the pKi [3] was 8.15, the “Competition at 100 nM (%)” value [4] was 72% and the “Competition at 1 μM (%)” value [4] was 98%. The “Competition at 1 μM (%)” value [2] was 68%.
For `Cn1ccc(-n2cc3c(n2)CN(c2cncc(F)n2)C3=O)n1` [Example 148], the pKi [3] was 7.40, the “Competition at 100 nM (%)” value [4] was 77% and the “Competition at 1 μM (%)” value [4] was 91%.
In the case of `O=C1c2cn(-c3ccc(N4CC[C@H](F)C4)nc3)nc2CN1c1cccnn1` [Example 151], the pKi [3] was 6.65, the “Competition at 100 nM (%)” value [4] was 51% and the “Competition at 1 μM (%)” value [4] was 81%.
With `O=C1c2cn(-c3ccc(N4CC[C@H](F)C4)nc3)nc2CN1c1cccc(O)n1` [Example 163] the pKi [3] was 7.17, the “Competition at 100 nM (%)” value [4] was 49% and the “Competition at 1 μM (%)” value [4] was 99%.
For `O=C1c2cn(-c3ccc(N4CC[C@@H](F)C4)nc3)nc2CN1c1cc(O)ccn1` [Example 166], the pKi [3] was 7.26, the “Competition at 100 nM (%)” value [4] was 72% and the “Competition at 1 μM (%)” value [4] was 96%.
For `O=C1c2cn(-c3ccc(N4CC[C@@H](F)C4)nc3)nc2CN1c1ncccc1O` [Example 167], the pKi [3] was 7.25, the “Competition at 100 nM (%)” value [4] was 68% and the “Competition at 1 μM (%)” value [4] was 93%.
In the case of `O=C1c2cn(-c3ccc(N4CC[C@H](F)C4)nc3)nc2CN1c1ncccc1O` [Example 169], the pKi [3] was 7.35, the “Competition at 100 nM (%)” value [4] was 73% and the “Competition at 1 μM (%)” value [4] was 96%.
In the case of `O=C1c2cn(-c3ccc(N4CC[C@H](F)C4)nc3)nc2CN1c1cn[nH]c1` [Example 181], the pKi [3] was 6.87, the “Competition at 100 nM (%)” value [4] was 67% and the “Competition at 1 μM (%)” value [4] was 75%.
For `O=C1c2cn(-c3ccc(N4CC[C@@H]([18F])C4)nc3)nc2CN1c1cccnc1` [Example-1 [^18F-1]], the SUVmax whole brain [5] was 2.0, the “time of uptake post injection” value ([5]; whole brain) was 3.5 min and the “washout, peak to half peak” value ([5]; whole brain) was 14 min.
